Reference: PMC9513234, “Synthesis and Biological Evaluation of Termini-Modified and Cyclic Variants of the Connexin43 Inhibitor Peptide5” (Frontiers in Chemistry, 2022)

How the values were obtained:
[1] = system: gap junctions in hCMVEC cells; conditions: 100 µM, mean ± SEM
Protocol: We next investigated the ability of peptide5 variants to inhibit gap junctional communication using a scrape loading assay. In this assay, the cells in culture are loaded with a dye (Lucifer Yellow dilithium salt (LY), M.W. 457.25 Da) of molecular size (<1 kDa) that is able to transit through the gap junctions and the degree of dye spread is then measured by counting the number of cells that contain LY (Supplementary Material, Method 4) ^1. Consistent with our previous study, peptide5 (1) and Cbx reduced the degree of dye spread following incubation with LY (56.16 ± 2.1%; p < 0.0001 and 16.2 ± 1.1%; p < 0.0001, respectively) compared to the untreated controls (Figure 12).
Human cerebral microvascular endothelial cells (hCMVEC) were purchased from Applied Biological Materials (ABM) Inc, Canada (cat # T0259) (O'Carroll et al., 2015). Cells were cultured in 1 μg/cm^2 collagen I (Gibco) coated T75 flasks from Corning (NY, USA). The growth media was M199 media (Gibco), supplemented with 10% FBS, 1 μg/mL hydrocortisone (Sigma), 3 μg/mL human FGF (Peprotech), 10 μg/mL human EGF (Peprotech), 10 μg/mL heparin (Sigma), 2 mM Glutamax (Gibco), and 80 μM butyryl cAMP (Sigma).
For experiments hCMVECs cells were plated M199 media at a density of 4 x 10^5 cells per well in a collagen coated (1 µg/cm^2) 12-well plate the day prior to the experiment to ensure a confluent monolayer of hCMVECs. On the day of the experiment cells were pre-incubated in carbenoxolone, (100 µM) Peptide5 (5–100 µM) or modified analogues (100 µM) or M199 as a negative control. Cells were washed three times with phosphate buffered saline (PBS) without Ca^2+ or Mg^2+ and incubated in 0.05% Lucifer Yellow (LY) (Sigma), a fluorescent dye that is transferred through coupled gap junction channels (el-Fouly, Trosko, & Chang, 1987), and scrape-wounded with a size 10 carbon steel surgical blade (Swann-Morton, England). Following a 5 minute incubation at 37 °C in 95% O2 and 5% CO2 without light, the 0.05% LY solution was removed. Cells were rinsed four times with HBSS containing Ca^2+ ^+, and then fixed in 4% paraformaldehyde (PFA) in PBS at pH 7.4 for 10 minutes at room temperature. Cells were then washed 3 times in PBS to remove PFA before fluorescent imaging. Fluorescent images were visualized using a Nikon TE2000E inverted fluorescent microscope (10x magnification, 0.3 numerical aperture), and captured using a Digital Sight CCD camera and Eclipse Net software (Nikon). Three images within each well from three independent experiments were taken for analysis, and the total number of cells showing dye uptake from those that had been loaded were counted manually by masked observers. Each peptide was tested in at least an n of 2 separate experiments.

[2] = Human serum stability assay (RP-HPLC)
Protocol: We then evaluated the N-methylated variants 7 and 8, D amino acid variants 9 and 10, and the two carbo cyclic peptides 39 and 42. Each peptide was incubated with 25% aq. human serum at 37°C, and 6 aliquots were extracted within 48 h. The stability of each peptide upon exposure to human serum was then analyzed via analytical RP HPLC, and the amount of peptide still present at each time point was recorded relative to t = 0 h.
Whole blood was collected from a healthy volunteer and stored in a covered test tube and was allowed to clot by leaving it undisturbed at r.t. for ca. 1 h. The clot was removed by centrifugation at 1,000-2,000 x g for 10 min and the resulting supernatant was designated as the serum. The serum was collected and stored in 0.5 mL aliquots, whereby the samples were stored at - 20 °C.
200 µM concentration of peptide was incubated in 25% aq. human serum (1.7 mL) and left to shake at 37 °C. Aliquots of human serum-peptide mixture (270 µL) were taken at given times (0 h, 1 h, 4 h, 8 h, 24 h, and 48 h) and threefold excess of acetonitrile (810 µL) was added to the aliquot and left for 1 h at 0 °C. The samples underwent centrifugation (14,500 rpm) for 30 min at r.t. and the supernatant was subsequently collected. Upon evaporation of the solvents, the resulting dry, pale-yellow residue was dissolved in water containing 0.1 % TFA.
The dissolved solution was analysed via analytical RP HPLC and the quantity of the peptide was expressed as a percentage relative to the peptide peak area obtained at time zero (i.e. 100% peptide amount at t = 0 h). A scatterplot graph representing percentage of peptide versus time was generated.

[3] = system: hemichannels; set-up: method as in O’Carroll et al., 2008; conditions: in vitro; ref O’Carroll et al., 2008; cited from earlier work
[4] = system: gap junctions; conditions: in vitro, higher concentrations; ref O’Carroll et al., 2008; cited from earlier work
[5] = cited from earlier work
[6] = set-up: method as in Kumagai et al., 1991; conditions: ref Kumagai et al., 1991; cited from earlier work

Substance | LY dye spread (number of LY-positive cells) as percentage of untreated control [1] [%] | time to complete degradation in human serum [2] [h] | concentration selectively inhibiting hemichannels [3] [µM] | concentration inhibiting both gap junctions and hemichannels [4] [µM] | half-life in rat serum [5] [min] | increase in binding compared to its linear form [6] [fold]
H-VDCFLSRPTEKT-OH [peptide5, H2N-VDCFLSRPTEKT-CO2H] | 56.16 ± 2.1 | ≤ 10 | ≥ 5 | 500 | 5 | –
cilengitide | – | – | – | – | – | 10
